Structures can show the parent of a compound that is named as a salt. Where two headings read alike, the source gives them in different places.
Key:
[1] = stated as background, no test described, cited from earlier work
[2] = in vitro release from dialysis bag into saline; format: physicochemical
[3] = test system: cats; details: previous data; cited from earlier work

SMILES	solubility in water / aqueous solutions (in words), known forms [1]	further results
COCCc1ccc(OCC(O)CNC(C)C)cc1 (centres unmarked) [metoprolol succinate, Metoprolol]	highly soluble in water	–
CC[C@H]1OC(=O)C[C@@H](O)[C@H](C)[C@@H](OC2OC(C)C(O)C(N(C)C)C2O)[C@@H](CCN2C[C@@H](C)C[C@H](C)C2)C[C@@H](C)C(=O)/C=C/C(C)=C/[C@@H]1COC1OC(C)C(O)C(OC)C1OC (some centres unmarked) [tilmicosin basic form, Tilmicosin]	moderately soluble	–
COCCc1ccc(OCC(O)CNC(C)C)cc1 (centres unmarked) [metoprolol base, Metoprolol]	–	in vitro release rate (in words) ([2]; dialysis bag into saline): diffused off rapidly
CC[C@H]1OC(=O)C[C@@H](O)[C@H](C)[C@@H](OC2OC(C)C(O)C(N(C)C)C2O)[C@@H](CCN2C[C@@H](C)C[C@H](C)C2)C[C@@H](C)C(=O)/C=C/C(C)=C/[C@@H]1COC1OC(C)C(O)C(OC)C1OC (some centres unmarked) [tilmicosin chloride salt, Tilmicosin]	highly soluble	–
CNCCC(Oc1ccc(C(F)(F)F)cc1)c1ccccc1 (centres unmarked) [fluoxetine base formulation, Fluoxetine]	–	time over which the formulation was released in vitro ([2]; 100 mg/ml in 10% propylene glycol in glycerol formal, dialysis technique): about 160 hrs
CC[C@H]1OC(=O)C[C@@H](O)[C@H](C)[C@@H](OC2OC(C)C(O)C(N(C)C)C2O)[C@@H](CCN2C[C@@H](C)C[C@H](C)C2)C[C@@H](C)C(=O)/C=C/C(C)=C/[C@@H]1COC1OC(C)C(O)C(OC)C1OC (some centres unmarked) [phosphate salt of tilmicosin, Tilmicosin]	–	solubility in water / aqueous solutions (in words), known forms ([1]; listed as tilmicosin phosphate salt): highly soluble; dosage that could be fatal to cats [3]: 25 mg/kg
CN(C)C1C(O)=C(C(N)=O)C(=O)[C@@]2(O)C(O)=C3C(=O)c4c(O)cccc4[C@@](C)(O)C3C(O)C12 (some centres unmarked) [hydrochloride salt of oxytetracycline, Oxytetracycline]	readily soluble in water	–
